Consider six molecules from paper PMC10673369, “Preliminary SAR of Novel Pleuromutilin–Polyamine Conjugates” (Microorganisms, 2023).

One assay concerns C. albicans ATCC 90028. Kind of assay: MIC, CO-ADD antifungal assay, C. albicans. Type of assay: cell-based, Candida albicans. The note with it: for MIC: Candida albicans, ATCC90028, mean (n = 2). The protocol:
(§1) The susceptibility of bacterial strains S. aureus (ATCC 25923), E. coli (ATCC 25922), and P. aeruginosa (ATCC 27853 or PAO1) to antibiotics and compounds was determined using reported protocols. Additional antimicrobial evaluation against MRSA (ATCC 43300), Klebsiella pneumoniae (ATCC 700603), A. baumannii (ATCC 19606), Candida albicans (ATCC 90028), and Cryptococcus neoformans (ATCC 208821) was undertaken at the Community for Open Antimicrobial Drug Discovery at The University of Queensland (Australia) according to their standard protocols as reported previously. […]
(§2) 2.3. Antimicrobial Assays
(§3) The susceptibility of bacterial strains S. aureus (ATCC 25923), E. coli (ATCC 25922), and P. […]
(§4) baumannii (ATCC 19606), Candida albicans (ATCC 90028), and Cryptococcus neoformans (ATCC 208821) was undertaken at the Community for Open Antimicrobial Drug Discovery at The University of Queensland (Australia) according to their standard protocols as reported previously. […]
(§5) For the antifungal assay, fungi strains were cultured for 3 days on YPD agar at 30 °C. A yeast suspension of 1 × 106 to 5 × 10^6 CFU/mL was prepared from five colonies. These stock suspensions were diluted with yeast nitrogen base (YNB) (Becton Dickinson, 233520) broth to a final concentration of 2.5 × 10^3 CFU/mL. The compounds were serially diluted 2-fold across the wells of 96-well plates (Corning 3641, non-binding surface), with compound concentrations ranging from 0.015 to 64 µg/mL and final volumes of 50 µL, plated in duplicate. Then, 50 µL of the fungi suspension that was previously prepared in YNB broth to the final concentration of 2.5 × 10^3 CFU/mL was added to each well of the compound-containing plates, giving a final compound concentration range of 0.008 to 32 µg/mL. Plates were covered and incubated at 35 °C for 36 h without shaking. C. albicans MICs were determined by measuring the absorbance at OD530. For C. neoformans, resazurin was added at 0.006% final concentration to each well and incubated for a further 3 h before MICs were determined by measuring […]
(§6) Colistin and vancomycin were used as positive bacterial inhibitor standards for Gram-negative and Gram-positive bacteria, respectively. Fluconazole was used as a positive fungal inhibitor standard for C. albicans and C. neoformans. The antibiotics were provided in […], with 3 above and 3 below its MIC value, and plated into the first 8 wells of column 23 of the 384-well NBS plates. The quality control (QC) of the assays was determined by the antimicrobial controls and the Z'-factor (using positive and negative controls). Each plate was deemed to fulfil the quality criteria (pass QC) if the Z'- […]
(§7) inhibition at their highest concentration, and no growth inhibition at their lowest concentration.
(§8) 2.4. Determination of the MICs of Antibiotics in the Presence of Synergizing Compounds

Another assay relates to E. coli ATCC 25922. As to the kind of experiment: Antibiotic enhancement of erythromycin. Type of assay: cell-based. The note with it: for Erythro/E.c.: fold change, ratio between intrinsic MIC of test compound and combination MIC: erythromycin at 2.7 µM; for Erythro/E.c.: concentration required to restore erythromycin activity: erythromycin at 2.7 µM (2 µg/mL). Here is the method: [Worded in the source for another target; used here, by the source, with some conditions changed.] Antibiotic restoring enhancer concentrations were determined using reported protocols (see Supplementary File).
Briefly, restoring enhancer concentrations were determined with an inoculum of 5x10^5 CFU in 200 µL of MHB containing two-fold serial dilutions of each derivative in the presence of doxycycline at 4.5 […]
The lowest concentration of the polyamine
These measurements were independently repeated in triplicate.
Outer membrane permeabilization was measured using nitrocefin as a chromogenic substrate of periplasmic β-lactamase. Ten milliliters of MH broth were inoculated with 0.1 mL of an overnight culture of PAO1 bacteria and grown at 37°C until the OD600 reached 0.5. The remaining steps were performed at room temperature. Cells were recovered by centrifugation (4000 rpm for 20 min) and washed once in 20 mM potassium phosphate buffer (pH 7.2) containing MgCl2 (1 mM). After a second centrifugation, the pellet was resuspended and adjusted to OD600 of 0.5. Then, 50 µL of the desired compound was added to 100 µL of the cell suspension to obtain a final concentration varying from 3.9 µM to 250 µM. Fifty microliters of nitrocefin were then added to obtain a final concentration of 50 µg/mL. Nitrocefin hydrolysis was monitored spectrophotometrically by measuring the increase in absorbance at 490 nm. Assays were performed in 96-well plates using a M200 Pro Tecan […]
HEK293 cells were counted manually in a Neubauer hemocytometer and plated at a density of 5,000 cells/well into each well of the 384-well plates containing the 25x (2 µL) concentrated compounds [26,27]. The medium used was Dulbecco's modified Eagle’s medium (DMEM), supplemented with 10% fetal bovine serum (FBS). Cells were incubated together with the compounds for 20 h at 37 °C, 5% CO2.
To measure cytotoxicity, 5 µL (equals 100 µM final) of resazurin was added to each well after incubation and incubated for further 3 h at 37 °C with 5% CO2. After the final incubation, fluorescence intensity […]
reader. CC50 values (concentration at 50% cytotoxicity) were calculated by normalizing the fluorescence readout, with 74 µg/mL tamoxifen as negative control (0%) and normal cell growth as positive control (100%). The concentration-dependent percentage cytotoxicity was fitted to a dose–response function (using Pipeline Pilot) and CC50 values were determined.
Human whole blood was washed three times with three volumes of 0.9% NaCl and then resuspended in the same solution to a concentration of 0.5 x 10^8 cells/mL, as determined by the manual cell count in a Neubauer hemocytometer. The washed cells were then added to the 384-well compound-containing plates for a final volume of 50 µL. After a 10 min shake on a plate shaker, the plates were then incubated for 1 h at 37 °C. After incubation, the plates were centrifuged at 1,000g for 10 min to pellet cells and debris; 25 µL of the supernatant was then transferred to a polystyrene 384-well assay plate. Hemolysis was determined by measuring the supernatant absorbance at […] (OD405). The absorbance was measured using a Tecan M1000 Pro monochromator plate reader. HC10 and HC50 (concentration at 10% and 50% hemolysis, respectively) were calculated by curve fitting the inhibition values vs. log (concentration) using a sigmoidal dose–response function with variable fitting values for the top, bottom, and slope.
2.8. Real-time growth curves
Solutions of the compound at concentrations of 2, 4, and 16 µg/mL were tested each in triplicate against S. aureus ATCC 25923 [26]. Typically, in a 96-well plate were placed 10 µL of 40, 80, and 320 µg/mL stock solutions of compound, as well as 190 µL of a 5 x 10^5 CFU/mL of the selected bacterial suspension in brain heart infusion (BHI) broth. Positive controls containing only 200 µL of a 5 x 10^5 CFU/mL of bacterial suspension in BHI and negative controls containing only 200 µL of BHI broth were added. The plate was incubated at 37°C in a TECAN Spark Reader (Roche Diagnostic) and real-time […]

Assay [1] concerns C. neoformans ATCC 208821. As to the kind of experiment: MIC, CO-ADD antifungal assay, C. neoformans. The note with it: for MIC: Cryptococcus neoformans, ATCC208821, mean (n = 2). Type of assay: cell-based, Cryptococcus neoformans. Here is the method: as §1, §2, §3, §4, §5, §6, §7, §8

On to `C=C[C@]1(C)C[C@@H](OC(=O)CSCCN(CC)CC)[C@]2(C)[C@H](C)CC[C@]3(CCC(=O)[C@H]32)[C@@H](C)[C@@H]1O` [Compound 2, Tiamulin, reference compound], for which, in the assay with C. albicans ATCC 90028, the MIC was greater than 64.8 µM. Moreover, the “MIC C.a.” value with C. albicans ATCC 90028 (mean (n = 2)) is listed as “no activity”. Also, in the assay with E. coli ATCC 25922, the “Erythro/E.c.: fold change, ratio between intrinsic MIC of test compound and combination MIC” value is listed as 0.5; the “Erythro/E.c.: concentration required to restore erythromycin activity” value (“Erythro/E.c.: concentration required” for short) is on record as greater than 405 µM. Besides, the MIC in assay [1] is greater than 64.8 µM. For the same molecule, the “MIC C.n.” value in assay [1] (mean (n = 2)) is “no activity”.
`C=C[C@]1(C)C[C@@H](OC(=O)CNCCCNCCCCNCCCNCC(=O)O[C@@H]2C[C@@](C)(C=C)[C@@H](O)[C@H](C)[C@]34CCC(=O)[C@H]3[C@@]2(C)[C@H](C)CC4)[C@]2(C)[C@H](C)CC[C@]3(CCC(=O)[C@H]32)[C@@H](C)[C@@H]1O.O=C(O)C(F)(F)F.O=C(O)C(F)(F)F.O=C(O)C(F)(F)F.O=C(O)C(F)(F)F` [Compound 9a, N^1,N^1′-(Butane-1,4-diyl)bis(N^3-(2-(((3aR,4R,5R,7S,8S,9R,9aS,12R)-8-hydroxy-4,7,9,12-tetramethyl-3-oxo-7-vinyldecahydro-4,9a-propanocyclopenta [8]annulen-5-yl)oxy)-2-oxoethyl)propane-1,3-diaminium) 2,2,2-trifluoroacetate]: the MIC is greater than 23.2 µM with C. albicans ATCC 90028 and 0.72 µM in assay [1]. Further, in the assay on E. coli ATCC 25922, the “Erythro/E.c.: fold change, ratio between intrinsic MIC of test compound and combination MIC” value is on record as 2.
In the case of `C=C[C@]1(C)C[C@@H](OC(=O)CNCCCNCCCCCCNCCCNCC(=O)O[C@@H]2C[C@@](C)(C=C)[C@@H](O)[C@H](C)[C@]34CCC(=O)[C@H]3[C@@]2(C)[C@H](C)CC4)[C@]2(C)[C@H](C)CC[C@]3(CCC(=O)[C@H]32)[C@@H](C)[C@@H]1O.O=C(O)C(F)(F)F.O=C(O)C(F)(F)F.O=C(O)C(F)(F)F.O=C(O)C(F)(F)F` [Compound 9b, N^1,N^1′-(Hexane-1,6-diyl)bis(N^3-(2-(((3aR,4R,5R,7S,8S,9R,9aS,12R)-8-hydroxy-4,7,9,12-tetramethyl-3-oxo-7-vinyldecahydro-4,9a-propanocyclopenta [8]annulen-5-yl)oxy)-2-oxoethyl)propane-1,3-diaminium) 2,2,2-trifluoroacetate], the MIC with C. albicans ATCC 90028 is greater than 22.7 µM; in assay [1], no more than 0.18 µM. The “Erythro/E.c.: fold change, ratio between intrinsic MIC of test compound and combination MIC” value in the assay on E. coli ATCC 25922 turned out to be 1. The “Erythro/E.c.: concentration required” value with E. coli ATCC 25922 is recorded as 8.88 µM.
Consider `C=C[C@]1(C)C[C@@H](OC(=O)CNCCCNCCCCCCCNCCCNCC(=O)O[C@@H]2C[C@@](C)(C=C)[C@@H](O)[C@H](C)[C@]34CCC(=O)[C@H]3[C@@]2(C)[C@H](C)CC4)[C@]2(C)[C@H](C)CC[C@]3(CCC(=O)[C@H]32)[C@@H](C)[C@@H]1O.O=C(O)C(F)(F)F.O=C(O)C(F)(F)F.O=C(O)C(F)(F)F.O=C(O)C(F)(F)F` [Compound 9c, N^1,N^1′-(Heptane-1,7-diyl)bis(N^3-(2-(((3aR,4R,5R,7S,8S,9R,9aS,12R)-8-hydroxy-4,7,9,12-tetramethyl-3-oxo-7-vinyldecahydro-4,9a-propanocyclopenta [8]annulen-5-yl)oxy)-2-oxoethyl)propane-1,3-diaminium) 2,2,2-trifluoroacetate], for which the results for the MIC (with C. albicans ATCC 90028; in assay [1]) were greater than 22.5 µM and no more than 0.18 µM, respectively. Besides, the “Erythro/E.c.: fold change, ratio between intrinsic MIC of test compound and combination MIC” value in the assay with E. coli ATCC 25922 is 2.
For the molecule `C=C[C@]1(C)C[C@@H](OC(=O)CNCCCNCCCCCCCCNCCCNCC(=O)O[C@@H]2C[C@@](C)(C=C)[C@@H](O)[C@H](C)[C@]34CCC(=O)[C@H]3[C@@]2(C)[C@H](C)CC4)[C@]2(C)[C@H](C)CC[C@]3(CCC(=O)[C@H]32)[C@@H](C)[C@@H]1O.O=C(O)C(F)(F)F.O=C(O)C(F)(F)F.O=C(O)C(F)(F)F.O=C(O)C(F)(F)F` [Compound 9d, N^1,N^1′-(Octane-1,8-diyl)bis(N^3-(2-(((3aR,4R,5R,7S,8S,9R,9aS,12R)-8-hydroxy-4,7,9,12-tetramethyl-3-oxo-7-vinyldecahydro-4,9a-propanocyclopenta [8]annulen-5-yl)oxy)-2-oxoethyl)propane-1,3-diaminium) 2,2,2-trifluoroacetate], the MIC is greater than 22.3 µM in the assay with C. albicans ATCC 90028 and no more than 0.17 µM in assay [1]. For the same molecule, the “Erythro/E.c.: fold change, ratio between intrinsic MIC of test compound and combination MIC” value with E. coli ATCC 25922 was determined as 2.
Turning to `C=C[C@]1(C)C[C@@H](OC(=O)CNCCCNCCCCCCCCCCNCCCNCC(=O)O[C@@H]2C[C@@](C)(C=C)[C@@H](O)[C@H](C)[C@]34CCC(=O)[C@H]3[C@@]2(C)[C@H](C)CC4)[C@]2(C)[C@H](C)CC[C@]3(CCC(=O)[C@H]32)[C@@H](C)[C@@H]1O.O=C(O)C(F)(F)F.O=C(O)C(F)(F)F.O=C(O)C(F)(F)F.O=C(O)C(F)(F)F` [Compound 9e, N^1,N^1′-(Decane-1,10-diyl)bis(N^3-(2-(((3aR,4R,5R,7S,8S,9R,9aS,12R)-8-hydroxy-4,7,9,12-tetramethyl-3-oxo-7-vinyldecahydro-4,9a-propanocyclopenta [8]annulen-5-yl)oxy)-2-oxoethyl)propane-1,3-diaminium) 2,2,2-trifluoroacetate], the MIC in the assay with C. albicans ATCC 90028 came out at 10.9 µM. In the assay on E. coli ATCC 25922, the “Erythro/E.c.: fold change, ratio between intrinsic MIC of test compound and combination MIC” value was 0.5; the “Erythro/E.c.: concentration required” value is 8.54 µM. For the same molecule, in assay [1], the MIC is no more than 0.17 µM.

For orientation: MIC means the lowest concentration that inhibits growth of the organism.
